Where a SMILES comes first, the peptide text is derived from it.
Assays:
human GPR15 [1] = target: T1, human GPR15 (Homo sapiens, UniProt P49685); test: Aequorin assay on human GPR15 stably expressed in recombinant cells; type: cell-based
T1 construct: expressed in transfected cells; host or cells: CHO-Aeq (with or without Galpha16), vector pEFIN3
T1 sequence (P49685 1-360): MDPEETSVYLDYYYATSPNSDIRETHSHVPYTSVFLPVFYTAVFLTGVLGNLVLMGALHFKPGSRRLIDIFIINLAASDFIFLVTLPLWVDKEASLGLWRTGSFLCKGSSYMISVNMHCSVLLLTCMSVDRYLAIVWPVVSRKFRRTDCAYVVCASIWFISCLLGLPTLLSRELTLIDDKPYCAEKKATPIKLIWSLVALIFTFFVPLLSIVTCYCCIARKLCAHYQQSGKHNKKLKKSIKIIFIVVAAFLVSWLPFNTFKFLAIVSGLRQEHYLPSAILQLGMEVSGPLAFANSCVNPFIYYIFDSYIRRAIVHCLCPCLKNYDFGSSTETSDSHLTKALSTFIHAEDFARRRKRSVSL
Excerpt: (§1) Throughout this specification, the term “Aequorin assay” refers to methods for performing high throughput functional screening of GPCRs. Said methods employ recombinant cell lines stably transfected with plasmids encoding apoaequorin, a GPCR of interest and if necessary, a recombinant G protein to redirect the coupling of the GPCR toward calcium signaling. After clonal selection, the best clones are selected on the basis of pharmacological characterization, high signal to background ratio and stability of expression. This method has been developed by Euroscreen SA, 47 Rue Adrienne Bolland, 6041 Gosselies, Belgium.
(§2) Plasmids encoding human and mouse GPR15 were stably transfected in CHO, 1321 N1 and HEK293 cells expressing the apoaequorin (CHO-Aeq, 1321-N1-Aeq and HEK-Aeq). GPR15 mRNA sequence integrities were checked using RT-PCR at T0 and T30 culture times in CHO cells.
An hGPR15 CHO-Gα16Aeq cell line was used for the Aequorin screening of Euroscreen proprietary libraries of natural ligands and tissue extracts collection. Specific activation of GPR15 over more than 20 other orphan GPCRs was identified in fractions from a colon aqueous extract.
(§3) QKPQLWVVPGALPQV peptide (SEQ ID NO: 2), corresponding to a putative tryptic C-term fragment (43-57) of the porcine peptide, was first synthesised for GPR15 evaluation.
(§4) Both peptides (i.e., those produced via CHO production and in vitro production in the agglutinin wheat germ extract system) were tested for GPR15 activation using Aequorin dose response curves.

human GPR23 = target: T2, human GPR23 (Homo sapiens, UniProt Q99677); test: Aequorin assay on unrelated receptor hGPR23 (selectivity); type: cell-based; settings: CHO-Aeq cells expressing hGPR23
T2 construct: expressed in transfected cells; host or cells: CHO-Aeq Galpha16
T2 sequence (Q99677 whole entry): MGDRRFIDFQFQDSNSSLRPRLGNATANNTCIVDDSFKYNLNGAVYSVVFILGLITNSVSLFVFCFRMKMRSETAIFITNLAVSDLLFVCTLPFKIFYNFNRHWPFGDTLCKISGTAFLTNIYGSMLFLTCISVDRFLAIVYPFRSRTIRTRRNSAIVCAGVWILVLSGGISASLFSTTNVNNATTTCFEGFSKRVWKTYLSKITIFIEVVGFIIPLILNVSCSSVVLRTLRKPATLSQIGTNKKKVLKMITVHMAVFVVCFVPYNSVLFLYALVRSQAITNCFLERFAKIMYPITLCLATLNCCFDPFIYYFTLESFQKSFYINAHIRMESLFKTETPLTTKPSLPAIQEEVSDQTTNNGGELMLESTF
Excerpt: as §1, §3, §4

[2] = test system: subjects treated for psoriasis; settings: after 4 weeks; cited from earlier work
mouse GPR15 = target: T3, mouse GPR15 (Mus musculus, UniProt Q0VDU3); test: Aequorin assay on mouse GPR15 stably expressed in CHO-Aeq cells; type: cell-based; settings: CHO and IV produced polypeptide
T3 construct: expressed in transfected cells; host or cells: CHO-Aeq (with or without Galpha16), vector pEFIN5
T3 sequence (Q0VDU3 1-360): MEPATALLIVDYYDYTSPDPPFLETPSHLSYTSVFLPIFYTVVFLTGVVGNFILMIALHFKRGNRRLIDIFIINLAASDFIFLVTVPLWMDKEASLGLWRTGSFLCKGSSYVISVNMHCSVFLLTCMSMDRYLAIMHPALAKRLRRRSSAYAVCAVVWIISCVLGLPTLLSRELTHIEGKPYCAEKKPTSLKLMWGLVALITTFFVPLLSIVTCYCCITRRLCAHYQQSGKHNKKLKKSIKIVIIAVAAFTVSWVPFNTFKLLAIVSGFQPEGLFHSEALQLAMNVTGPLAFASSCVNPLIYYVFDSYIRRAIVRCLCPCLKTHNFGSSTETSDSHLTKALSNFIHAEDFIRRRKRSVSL
Excerpt: as §1, §2, §3

human GPRC5C = target: T4, human GPRC5C (Homo sapiens, UniProt Q9NQ84); test: Aequorin assay on unrelated receptor GPRC5C (selectivity); type: cell-based; settings: CHO-Aeq cells expressing GPRC5C
T4 construct: expressed in transfected cells; host or cells: CHO-Aeq Galpha16
T4 sequence (Q9NQ84 24-441): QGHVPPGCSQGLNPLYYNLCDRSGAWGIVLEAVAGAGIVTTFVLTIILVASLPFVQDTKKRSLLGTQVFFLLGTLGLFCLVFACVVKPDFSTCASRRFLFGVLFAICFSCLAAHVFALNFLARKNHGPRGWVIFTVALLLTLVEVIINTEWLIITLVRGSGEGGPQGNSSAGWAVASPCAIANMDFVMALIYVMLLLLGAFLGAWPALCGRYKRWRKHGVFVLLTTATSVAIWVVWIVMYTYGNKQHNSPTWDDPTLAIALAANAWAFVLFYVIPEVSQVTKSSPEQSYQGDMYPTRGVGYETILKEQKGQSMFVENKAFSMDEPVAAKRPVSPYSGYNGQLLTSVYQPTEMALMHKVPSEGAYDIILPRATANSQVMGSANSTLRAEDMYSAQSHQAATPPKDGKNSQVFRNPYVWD

human GPR15 [3] = target: T1, human GPR15; test: cAMP HTRF assay on CHO and HEK cells stably expressing hGPR15; type: cell-based
SW48 cells [4] = test: Intracellular calcium in SW48 colon cancer cells; type: cell-based, human; settings: after priming
SW48 cells [5] = test: Forskolin-induced cAMP in SW48 colon cancer cells; type: cell-based, human; settings: pertussis toxin sensitive
[6] = test system: human neonatal dermal fibroblasts; test: IP-10 (CXCL10) release from human neonatal dermal fibroblasts; type: cell-based; settings: GPR15-independent
Excerpt: GPR15L action is also mediated by a GPR15-independent mechanism in human neonatal dermal fibroblasts. […] Interferon gamma-induced protein 10 (IP-10), also known as C—X—C motif chemokine 10 (CXCL10), is secreted by monocytes, endothelial cells, and fibroblasts in response to IFN-γ. CXCL10 binds to the cell surface chemokine receptor CXCR3 and is implicated in such processes as chemoattraction for monocytes/macrophages, T cells, NK cells, and dendritic cells, promotion of T cell adhesion to endothelial cells, antitumor activity, and inhibition of bone marrow colony formation and angiogenesis.

Row | Molecule | activation of hGPR15 CHO cell line (human GPR15 [1]; hGPR15 CHO cell line, compared with EC50 of ~2 μM) | calcium/luminescence response of hGPR23 cells (human GPR23) | c10orf99 mRNA [2] | reduction in the Psoriasis Area and Severity Index (PAST) [2] | activation of hGPR15 (human GPR15 [1]; CHO-Aeq cells, ligand from CHO production or IV preparation) | activation of hGPR15 in HEK-Aeq Gα16 cells (human GPR15 [1]; stably transfected HEK-Aeq Gα16 cells) | activation of mouse GPR15 receptor (mouse GPR15) | calcium signal on GPRC5C (human GPRC5C) | activation of hGPR15 (cAMP HTRF assay) (human GPR15 [3]) | intracellular calcium levels (SW48 cells [4]) | forskolin-induced cAMP elevation (SW48 cells [5]) | IP-10 release [6]
1 | CC(C)C[C@H](NC(=O)[C@H](CCC(N)=O)NC(=O)[C@@H]1CCCN1C(=O)[C@H](CCCCN)NC(=O)[C@@H](N)CCC(N)=O)C(=O)N[C@@H](Cc1c[nH]c2ccccc12)C(=O)N[C@H](C(=O)N[C@H](C(=O)N1CCC[C@H]1C(=O)NCC(=O)N[C@@H](C)C(=O)N[C@@H](CC(C)C)C(=O)N1CCC[C@H]1C(=O)N[C@@H](CCC(N)=O)C(=O)N[C@H](C(=O)O)C(C)C)C(C)C)C(C)C [QKPQLWVVPGALPQV peptide, QKPQLWVVPGALPQV] (H-QKPQLWVVPGALPQV-OH; N-terminus and C-terminus assumed) | same affinity | failed in responding |  |  |  |  |  |  |  |  |  | 
2 | secukinumab: fully human monoclonal antibody that selectively binds to and neutralizes IL-17A |  |  | significant decrease | 58% |  |  |  |  |  |  |  | 
3 | KRRPAKAWSGRRTRLCCHRVPSPNSTNLKGHHVRLCKPCK LEPEPRLWVVPGALPQV (KRRPAKAWSGRRTRLCCHRVPSPNSTNLKGHHVRLCKPCKLEPEPRLWVVPGALPQV) [c10orf99, made by CHO production, in vitro translation or synthesis] |  | failed to induce any calcium signal |  |  | specifically activated | confirmed | Activation of mouse GPR15 receptor was observed | failed to induce any calcium signal | activation | dose response dependent increase in intracellular calcium levels | pertussis toxin sensitive decrease in forskolin-induced cAMP elevation | induces IP-10-release
